Results reported in article PMC8160210, “Single tryptophan Y160W mutant of homooligomeric E. coli purine nucleoside phosphorylase implies that dimers forming the hexamer are functionally not equivalent” (Scientific Reports, 2021).

Legend:
[1] = molecular target: T1, Y160W PNP mutant (Escherichia coli, UniProt P0ABP8, Y161W); experiment: Fluorescence titrations with phosphate; design: made in house; host or cells: E. coli DH5α-T1; species or system E. coli; details: three-binding-site model, 25 °C
T1 sequence (P0ABP8 2-239 Y161W): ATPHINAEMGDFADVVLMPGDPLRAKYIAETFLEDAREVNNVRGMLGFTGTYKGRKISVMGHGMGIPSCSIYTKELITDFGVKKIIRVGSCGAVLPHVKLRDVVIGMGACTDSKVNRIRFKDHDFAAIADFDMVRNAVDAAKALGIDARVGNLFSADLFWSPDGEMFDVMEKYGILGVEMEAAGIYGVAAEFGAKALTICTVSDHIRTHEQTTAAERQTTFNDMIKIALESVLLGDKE
Description: All experiments were carried out on the Perkin-Elmer LS55 spectrofluorimeter. Fluorescence spectra were registered using in each case (protein or protein–ligand complex) several excitation wavelengths. Differential spectra were calculated by subtracting spectrum of a protein from the spectrum of the appropriate complex. The negative differential fluorescence intensity means that a decrease of fluorescence upon complex formation is observed. Titrations of the enzyme with phosphate were registered using several excitation and observation wavelengths combinations. When selecting specific wavelengths for such a combination, two criteria were used: (1) the overall change in the fluorescence signal and (2) the complexity of the shape of the titration as the analysis of the multi-phasic curves is more explicit than a uni-phasic curve analysis.
Path length for the excitation was 2 mm and for the emission was 5 mm (half of the cuvette dimensions). A continuous stirring was used during titrations. All measurements were performed at 25 °C. […]
Fluorescence intensity of the WT protein is stable over time, but in the case of the Y160W mutant a slight quenching of fluorescence is observed during titration, which typically lasted about 30 min as the time between each point in the titration was 1 min. Furthermore, adding phosphate during titration stabilises the intrinsic fluorescence of the protein. […] Thus corrected binding curves, F^cor([Pi]), are given by the following equation, in which Fn([Pi]) is the fluorescence intensity measured for the phosphate concentration [Pi], and n is the number of a given titration point in the particular titration:4 FncorPi=FnPi+∑m=1naPim
To check its influence on the intrinsic protein fluorescence, titrations with NaCl were performed, giving dependence F(I). […] Titration curves of the WT protein with phosphate were therefore measured up to 100 mM ionic strength of solution, which is enough to observe a plateau. […] Both F^obs([Pi]) and F(I) were corrected for the time dependent fluorescence quenching, according to Eq. (4), prior to the F^bind([Pi]) calculation. […]

[2] = molecular target: T1, Y160W PNP mutant; experiment: Thermophoretic (MST) titrations with phosphate; design: made in house; host or cells: E. coli DH5α-T1; species or system E. coli; details: two-binding-site model, 25 °C
Description: Measurements were performed with Monolith NT115 (NanoTemper). Enzyme was labelled with NT647 fluorescent dye (NanoTemper) according to the protocol provided by the manufacturer. Labelled proteins show fluorescence excitation and emission maxima of approximately 650 and 670 nm, respectively. The series of titrations were performed at a constant protein concentration. Both proteins (WT and mutant), and ligands were dissolved in 50 mM Tris/HCl pH 7.6 buffer, measurements were performed at 25 °C. […] In the pre-experiments, it was carefully checked for both proteins, WT and Y160W mutant whether any sign of aggregation or inactivation occurs, and if mutant behaviour is similar to that of the WT enzyme. […]
For experiments of the binary complex formation with phosphate, curves were measured at four different powers of the heating laser. Two to five titrations at each heating power were measured, and curves were averaged for a particular heating power. […] This is an area inaccessible in fluorescence titration due to the quenching of the protein fluorescence at such a high ionic strength of the solution. […]
Titration series were analysed globally, always starting from the simplest, one-binding-site model. […] For all tested models the Akaike information criterion[23] was also calculated. […]

[3] = 50 mM Tris/HCl pH 7.6, read-out: Kd1 ± SD
[4] = 50 mM Tris/HCl pH 7.6, read-out: Kd3 ± SD

## O=P(O)(O)O [Pi, Orthophosphate]
[1]; [3]
  Kd: 7 µM
[1]; 50 mM Tris/HCl pH 7.6, read-out: Kd2 ± SD
  Kd: 200 µM
[1]; [4]
  Kd: 3200 µM
[2]; [3]
  Kd: 3.2 µM
[2]; [4]
  Kd: 1280 µM
